The source of these data is publication PMC8286840, “Identifying SARS-CoV-2 antiviral compounds by screening for small molecule inhibitors of Nsp3 papain-like protease” (Biochemical Journal, 2021).

Where a name gives a salt, the structure may show the parent alone. Read-outs that look alike come from different tables or passages of the source.

The target in assay [1] is T1, SARS-CoV-2 PLpro (nsp3 1564–1878) (Severe acute respiratory syndrome coronavirus 2, UniProt P0DTD1). The assay can be described thus: biochemical. Further details: FRET-quenched peptide (Pro3) cleavage by PLpro, 10 min pre-incubation, slope over 20 min, normalised to no-compound control. The conditions noted are these: high concentration screen, read-out: % of control remaining.

The target of assay [2] is T1, SARS-CoV-2 PLpro (nsp3 1564–1878). Kind of assay: biochemical. Further details: FRET-quenched peptide (Pro3) cleavage by PLpro, 10 min pre-incubation, slope over 20 min, normalised to no-compound control. To be noted: low concentration screen, read-out: % of control remaining.

As to `C/C=C1/C[C@@H](C)[C@@](C)(O)C(=O)OCC2=CCN3CC[C@@H](OC1=O)[C@@H]23` [Senecionine], the remaining activity at 3.75 µM in assay [1] (Well no.=3464) is 99.1%. Further, the remaining activity at 1.25 µM in assay [2] (Well no.=3464) turned out to be 98.3%.

As for `CCN(CC)CCNC(=O)c1cc(S(C)(=O)=O)ccc1OC` [Tiapride hydrochloride], in assay [1] (Well no.=1185), the remaining activity at 3.75 µM stood at 100%. The remaining activity at 1.25 µM in assay [2] (Well no.=1185) was 101%.

For `CO[C@H]1[C@H](OC(=O)c2ccc(C)[nH]2)[C@H](O)[C@@H](Oc2ccc3c(O)c(NC(=O)c4c[nH]c(C(=O)Nc5c(O)c6ccc(O[C@H]7OC(C)(C)[C@@H](OC)[C@H](OC(=O)c8ccc(C)[nH]8)[C@@H]7O)c(C)c6oc5=O)c4C)c(=O)oc3c2C)OC1(C)C` [Coumermycin A1], the remaining activity at 3.75 µM in assay [1] (Well no.=3175) stood at 104%. Besides, the remaining activity at 1.25 µM in assay [2] (Well no.=3175) worked out at 105%.

`C[n+]1c2ccccc2nc2ccccc21` [5-methylphenazin-5-ium methyl sulfate]: the remaining activity at 3.75 µM in assay [1] (Well no.=5668) was 89.8%. Also, the remaining activity at 1.25 µM in assay [2] (Well no.=5668) was determined as 91.9%.

`CCCc1cc(C(N)=S)ccn1` [Prothionamide]: the remaining activity at 3.75 µM in assay [1] (Well no.=2147) was 99.4%. For the same compound, the remaining activity at 1.25 µM in assay [2] (Well no.=2147) was 97%.

Consider `CN1C(C(=O)Nc2ccccn2)=C(O)c2ccccc2S1(=O)=O` [Piroxicam], for which the remaining activity at 3.75 µM in assay [1] (Well no.=862) turned out to be 103%; in assay [1] (Well no.=1566), 99.8%. The remaining activity at 1.25 µM in assay [2] (Well no.=862) came out at 99.8%; in assay [2] (Well no.=1566), 98.4%.

With `O=C1NCCCc2c1oc1ccc(O)cc21` [CID755673], the remaining activity at 3.75 µM in assay [1] (Well no.=6214) came to 96%. Further, in assay [2] (Well no.=6214), the remaining activity at 1.25 µM turned out to be 104%.

On to `Cc1c(C)c2c(c(C)c1O)CCC(C)(C(=O)O)O2` (stereo not drawn) [Trolox], for which the remaining activity at 3.75 µM in assay [1] (Well no.=3899) is 99.4%. In addition, the remaining activity at 1.25 µM in assay [2] (Well no.=3899) amounted to 101%.

On to `O=C(CCNNC(=O)c1ccncc1)NCc1ccccc1` [Nialamide], for which the remaining activity at 3.75 µM stood at 93.8% in assay [1] (Well no.=1091) and 97.3% in assay [1] (Well no.=1837). Moreover, the remaining activity at 1.25 µM in assay [2] (Well no.=1091) was determined as 95.4%; in assay [2] (Well no.=1837), 97.6%.

Take `CS(=O)(=O)c1ccc(-c2cnc(N)c(C(=O)Nc3ccccc3)n2)cc1` [VE-821]: in assay [1] (Well no.=4790), the remaining activity at 3.75 µM is 96.4%. Also, the remaining activity at 1.25 µM in assay [2] (Well no.=4790) amounted to 97.8%.

For `C[C@]12CC[C@H](O)CC1=CC[C@@H]1[C@@H]2CC[C@]2(C)C(n3cnc4ccccc43)=CC[C@@H]12` [Galeterone (TOK-001)], the remaining activity at 3.75 µM in assay [1] (Well no.=5127) was found to be 99.7%. Also, the remaining activity at 1.25 µM in assay [2] (Well no.=5127) came to 97.5%.

For `CC[C@@H](N)CNc1ccnc(-c2cc(-c3cnn(C)c3)ccc2O)n1` [CRT0066101 dihydrochloride], the remaining activity at 3.75 µM in assay [1] (Well no.=6498) stood at 90.1%. The remaining activity at 1.25 µM in assay [2] (Well no.=6498) turned out to be 89.1%.

For `CCCCC/C=C\C/C=C\C/C=C\C/C=C\CCCC(=O)OC(CO)CO` [2-Arachidonoylglycerol], the remaining activity at 3.75 µM in assay [1] (Well no.=4505) turned out to be 88.7%. The remaining activity at 1.25 µM in assay [2] (Well no.=4505) was 94.8%.

Take `CC[C@H](C(=O)N1CCCC[C@H]1C(=O)O[C@H](CCc1ccc(OC)c(OC)c1)c1cccc(OCC(=O)NCC(CNC(=O)COc2cccc([C@@H](CCc3ccc(OC)c(OC)c3)OC(=O)[C@@H]3CCCCN3C(=O)[C@@H](CC)c3cc(OC)c(OC)c(OC)c3)c2)CN(C)C)c1)c1cc(OC)c(OC)c(OC)c1` [AP20187]: the remaining activity at 3.75 µM in assay [1] (Well no.=7174) was 100%; in assay [1] (Well no.=7696), 97.5%. For the same compound, the results for the remaining activity at 1.25 µM in assay [2] (Well no.=7174) and in assay [2] (Well no.=7696) were 98.8% and 102%, respectively.

For `CCc1cc2c(cc1CC)CC(NC[C@H](O)c1ccc(O)c3[nH]c(=O)ccc13)C2` [Indacaterol Maleate], the remaining activity at 3.75 µM in assay [1] (Well no.=5323) stood at 98.4%. Further, the remaining activity at 1.25 µM in assay [2] (Well no.=5323) came out at 101%.

For `NC(=S)NN=Cc1ncccc1N` [3-amino-2-pyridinecarbaldehyde thiosemicarbazone], in assay [1] (Well no.=5964), the remaining activity at 3.75 µM worked out at 97.9%. The remaining activity at 1.25 µM in assay [2] (Well no.=5964) came to 98.3%.

As for `OC1c2ccccc2N=C2CCCN21` (stereo not drawn) [Peganole], the remaining activity at 3.75 µM in assay [1] (Well no.=3541) turned out to be 104%. Besides, the remaining activity at 1.25 µM in assay [2] (Well no.=3541) was 95.9%.

With `C[C@H]1O[C@@H](O[C@H]2[C@@H](O)C[C@H](O[C@H]3[C@@H](O)C[C@H](O[C@H]4CC[C@@]5(C)[C@H](CC[C@@H]6[C@@H]5CC[C@]5(C)[C@@H](C7=CC(=O)OC7)CC[C@]65O)C4)O[C@@H]3C)O[C@@H]2C)C[C@H](O)[C@@H]1O` [Digitoxin], the remaining activity at 3.75 µM in assay [1] (Well no.=3463) was 105%. Moreover, the remaining activity at 1.25 µM in assay [2] (Well no.=3463) turned out to be 104%.

On to `CC(C)N(CC[C@H](c1ccccc1)c1cc(CO)ccc1O)C(C)C` [(R)-5-Hydroxymethyl Tolterodine], for which the remaining activity at 3.75 µM in assay [1] (Well no.=7038) worked out at 107%. In addition, the remaining activity at 1.25 µM in assay [2] (Well no.=7038) was 107%.

As to `NC(=O)c1ccc(N(C(N)=O)c2c(F)cccc2F)nc1-c1ccc(F)cc1F` [VX702], in assay [1] (Well no.=2943), the remaining activity at 3.75 µM came out at 105%. Also, in assay [2] (Well no.=2943), the remaining activity at 1.25 µM stood at 104%.

For `CCCc1nn(C)c2c(=O)[nH]c(-c3cc(S(=O)(=O)N4CCN(C)CC4)ccc3OCC)nc12` [Sildenafil citrate], the remaining activity at 3.75 µM in assay [1] (Well no.=4821) was 94.2%. Also, the remaining activity at 1.25 µM in assay [2] (Well no.=4821) was 94.7%.

As to `S=C(N/N=C1\CCCc2cccnc21)N1CCN(c2ccccn2)CC1` [COTI-2], the remaining activity at 3.75 µM in assay [1] (Well no.=6156) was found to be 110%. Moreover, the remaining activity at 1.25 µM in assay [2] (Well no.=6156) was found to be 109%.

Take `CCCC(=O)Nc1cccc(NC(=O)c2ccccc2Br)c1` [ML-161]: the remaining activity at 3.75 µM in assay [1] (Well no.=4845) was found to be 93%. Further, the remaining activity at 1.25 µM in assay [2] (Well no.=4845) was 95%.

On to `CCCCC[C@H](O)/C=C/[C@@H]1[C@H]2C/C(=C/CCCC(=O)O)O[C@H]2C[C@H]1O` [Prostaglandin I2 Na], for which the remaining activity at 3.75 µM in assay [1] (Well no.=4483) is 102%. For the same compound, the remaining activity at 1.25 µM in assay [2] (Well no.=4483) turned out to be 99%.

On to `NCCc1ccc(O)cc1` [4-Hydroxyphenethylamine hydrochloride], for which the remaining activity at 3.75 µM in assay [1] (Well no.=1237) was determined as 102%. Also, in assay [2] (Well no.=1237), the remaining activity at 1.25 µM worked out at 101%.

With `OC[C@H]1O[C@@H](n2cnc3c(N[C@H]4CCC[C@@H]4O)ncnc32)[C@H](O)[C@@H]1O` [GR79236], the remaining activity at 3.75 µM in assay [1] (Well no.=7817) was 105%; in assay [1] (Well no.=7852), 93.8%; in assay [1] (Well no.=8455), 110%. Further, the remaining activity at 1.25 µM in assay [2] (Well no.=7817) came to 105%; in assay [2] (Well no.=7852), 94.1%; in assay [2] (Well no.=8455), 108%.

For `NC(=O)N1CCC(CC(=O)N2CCC([C@H]3c4ncc(Br)cc4CCc4cc(Cl)cc(Br)c43)CC2)CC1` [Lonafarnib (SCH66336)], in assay [1] (Well no.=4781), the remaining activity at 3.75 µM amounted to 101%. Further, the remaining activity at 1.25 µM in assay [2] (Well no.=4781) was 105%.

Regarding `COc1ccccc1N1CCN(CCCCNC(=O)c2ccc3ccccc3c2)CC1` [BP 897], the remaining activity at 3.75 µM in assay [1] (Well no.=35) was determined as 93.4%. In assay [2] (Well no.=35), the remaining activity at 1.25 µM is 95.8%.
